Columns and labels:
[1] = tested on: keratinocytes; test: Expansion of keratinocytes in KSFM supplemented with combinations of components; format: cell-based, human; details: increasing doses, KSFM with EGF, isoproterenol, A 83-01 and rHA
Description: In another experiment, keratinocytes were cultured in KSFM supplemented with various combinations of components.
In another experiment, keratinocytes were cultured in the presence of increasing doses of ROCK inhibitor (Y-27632) or Myosin II ATPase inhibitor (blebbistatin), in KSFM supplemented with EGF (0.5 ng/mL), isoproterenol (3 μM), A 83-01 (1 μM), and recombinant human serum albumin (expressed in rice; 100 μg/mL).
In another experiment, keratinocytes were cultured in the presence of increasing doses (between 10 nM to 2 μM) of retinoic acid receptors (RAR) antagonist BMS-453 or retinoic acid receptors (RAR) antagonist BMS-195614, in KSFM supplemented with EGF (0.5 ng/mL), isoproterenol (3 μM), A 83-01 (1 μM), and recombinant human serum albumin (expressed in rice; 100 μg/mL).

[2] = tested on: human telomerase reverse transcriptase (hTERT) gene; test: hTERT expression by quantitative real-time PCR in bronchial epithelial cells; format: cell-based; details: KSFM
Description: (§1) Total RNA was prepared using TRIzol® Plus RNA Purification Kit (Life Technologies, 12183-555) and PureLink® RNA Mini Kit (Life Technologies, 12183018A), following the manufacturer's instructions. One hundred nanogram total RNA was used for the determination of human telomerase reverse transcriptase (hTERT) expression using the TaqMan® RNA-to-CT™ 1-Step Kit (Life Technologies, 4392938), following the protocol provided by the supplier. hTERT primers and Taqman® probe used were as follows: forward primer, 5′-[…]-3′ (SEQ ID NO:7), reverse primer, 5′-[…]-3′ (SEQ ID NO:8) and Taqman® probe, 5′-[…]-3′ (SEQ ID NO:9).
(§2) In this example, hTERT expression in epithelial cells was assessed in the presence of an ALK5 inhibitor, a Rho kinase inhibitor (i.e., a Rho-associated protein kinase inhibitor), or both. Expression of hTERT gene was examined by quantitative real-time PCR in bronchial epithelial cells and prostate epithelial cells. The cells were treated with an ALK5 inhibitor, A83-01, or a Rho kinase inhibitor (i.e., a Rho-associated protein kinase inhibitor), Y-27632, or both inhibitors, at different passages in KSFM.

[3] = tested on: bronchial epithelial cells; test: Plating efficiency of bronchial epithelial cells in KSFM; format: cell-based, human; details: regular tissue culture surface
Description: (§3) Epithelial cells (prostate epithelial cells and bronchial epithelial cells) were plated at 3,000-10,000 viable cells/cm^2 in tissue culture vessels, using culture medium as indicated in Examples 2 to 5 and FIGS. 1 to 17, and incubated at 37° C. with 5% CO2. The medium was changed every 2 or 3 days. Cells were sub-cultured using standard trypsinization method when they were about 70-90% confluent. Total cell number was determined using the Countess II Automated Cell Counter (Life Technologies, AMQAX1000) following manufacturer's instructions.
(§4) In this example, epithelial cell plating efficiency, i.e., number of cells that efficiently attach to the cell culture surfaces, continue to divide and grow into colonies, was examined under various conditions.
(§5) However, those few cells that did attach continued to proliferate.
Many bronchial epithelial cells attached to regular tissue culture surface in the presence of both A83-01 and Y-27632 at day 2 after plating.

[4] = tested on: bronchial epithelial cells; test: Growth (population doublings) of bronchial epithelial cells in culture; format: cell-based, human; details: for total population doublings: added to KSFM
Description: as §3
(§6) A formula used for the calculation of population doublings (PD) is presented in Equation A: n=3.32*(log Y−log I)+X Equation A where n=the final PD number at end of a given subculture, Y=the cell yield at the time of harvesting, I=the cell number used as inoculum to begin that subculture, and X=the doubling level of the inoculum used to initiate the subculture being quantitated.
(§7) Prostate and bronchial epithelial cells were grown in KSFM in the presence of Rho kinase inhibitor (i.e., Rho-associated protein kinase inhibitor) Y-27632.
Similar to the experiment above, bronchial epithelial cells were grown in KSFM in the presence of media alone, ALK5 inhibitor A83-01, Rho kinase inhibitor (i.e., Rho-associated protein kinase inhibitor) Y-27632, or both (with or without collagen).

[5] = tested on: prostate epithelial cells; test: Plating efficiency of prostate epithelial cells in KSFM; format: cell-based, human; details: regular tissue culture surface
Description: as §3, §4, §5
Many prostate epithelial cells attached to regular tissue culture surface in the presence of both A83-01 and Y-27632 at day 2 after plating.

[6] = tested on: human telomerase reverse transcriptase (hTERT) gene; test: hTERT expression by quantitative real-time PCR in prostate epithelial cells; format: cell-based; details: KSFM
Description: as §1, §2
As shown in FIG. 6A and FIG. 6B, prostate epithelial cells at early passage (p2) expressed low level of hTERT, which quickly diminished at passage 3 and became non-detectible by passage 5.

[7] = tested on: prostate epithelial cells; test: Growth (population doublings) of prostate epithelial cells in culture; format: cell-based, human; details: for total population doublings: added to KSFM
Description: as §3, §6, §7
To examine the effects of additional in vitro and/or ex vivo growth conditions, prostate epithelial cells were grown in KSFM or PrEGM in the presence of media alone, ALK5 inhibitor A83-01, Rho kinase inhibitor (i.e., Rho-associated protein kinase inhibitor) Y-27632, or both (with or without collagen).

[8] = tested on: late passage prostate epithelial cells; test: Proliferation of late passage prostate epithelial cells in KSFM plus compounds, 5 days; format: cell-based, human; details: for total cell number after 5 days: KSFM plus individual compound alone, 1 μM and 0.2 μM (FIG. 16)
Description: Stocks of certain chemicals used in the study were prepared by dissolving in DMSO to 10 mM. The chemical stocks were added to culture media to desired final concentrations, as described in Examples 2 to 5 and shown in FIGS. 1 to 17, from the time when cell culture was initiated.
In a control experiment with no added compound, there was minimum increase of cell numbers after 5 days.
In control experiment with no inhibitor added to KSFM, there was minimum increase of cell numbers after 5 days. […] As described above, these include Rho kinase inhibitors (i.e., Rho-associated protein kinase inhibitors) such as Y-27632, SR 3677, GSK 429286 and Thiazovivin; PAK1 inhibitor IPA-3; and myosin II inhibitor (i.e., non-muscle myosin II (NM II) inhibitor) Blebbistatin.

[9] = tested on: human foreskin keratinocytes (HFK) and human bronchial epithelial cells (HBEC); test: Cell growth with increasing isoproterenol in KSFM plus A83-01 and Y-27632, six days; format: cell-based; details: in KSFM plus 1 μM A83-01 and 5 μM Y-27632, six days
Description: In a further investigation, epithelial cell growth was assessed in the presence of a beta-adrenergic agonist (i.e., a beta-adrenergic receptor agonist). Human foreskin keratinocytes (HFK) and human bronchial epithelial cells (HBEC) were cultured in KSFM plus 1 μM A83-01 and 5 μM Y-27632, supplemented with increasing concentrations of isoproterenol (a beta-adrenergic receptor agonist that increases cytosolic cAMP levels). Cell numbers were counted after six days to calculate cell growth relative to control.

[10] = tested on: bronchial epithelial cells; test: Effect of calcium content on bronchial epithelial cells in KSFM plus A83-01 and Y-27632 (morphology, TEER); format: cell-based, human
Description: Effects of culture media calcium content on cell behavior were assessed for epithelial cells cultured in KSFM plus A83-01 and Y-27632. Human bronchial epithelial cells were grown KSFM (with 90 μM CaCl2) plus A83-01 and Y-27632. These cells dispersed throughout the culture vessel (FIG. 28, left panel), and few cells formed intercellular connections, even when they were in close proximity to each other. […] Cells in the center of the patches tended to pile up, and boundaries between individual cells generally were not discernable. In certain instances, abnormal elongations formed between clusters.
In a further investigation, effects of culture media calcium content on intercellular junctions was assessed for bronchial epithelial cells cultured in KSFM plus A83-01 and Y-27632. Intercellular junctions were assessed according to paracellular flow of ions as measured by trans-epithelium electric resistance (TEER). […] Bronchial epithelial cells were plated on porous membrane support ([…], Corning, 354474) and maintained for 7 days when the membrane was covered with culture medium (submerged phase, grayed box in FIG. 29, top panel). On day 8, the medium was removed from the apical side of the membrane, and the cells were exposed to air to induce further differentiation. […]

[11] = tested on: human foreskin keratinocytes (HFK); test: Differentiation of keratinocytes at high CaCl2 in KSFM+A+Y (ZO-1 staining, TEER, H&E); format: cell-based
Description: Specifically, late passage human foreskin keratinocytes (HFK) cultured in KSFM supplemented with 1 μM A83-01 and 5 μM Y-27632 (KSFM+A+Y) at low CaCl2 (90 μM) were allowed to reach confluence. The cells remained in the KSFM+A+Y conditions and the CaCl2 concentration was raised to 1.5 mM to induce differentiation.
Keratinocytes established increasing transmembrane electric resistance (TEER) over time in air-liquid-interface differentiation, in the presence of high concentration (1.5 mM) of CaCl2 in KSFM plus A 83-01 and Y-27632. Specifically, human foreskin keratinocytes (HFK) previously cultured in KSFM supplemented with 1 μM A83-01 and 5 μM Y-27632 (KSFM+A+Y) at low CaCl2 (90 μM) were plated on a porous membrane support ([…], Corning, 354474) and maintained for 14 days. The cells were covered by culture medium (KSFM+A+Y and 1.5 mM of CaCl2) for the first day (submerged phase, grayed box in FIG. 34) and exposed to air for the remaining days.
Keratinocytes formed an epidermal-like structure over time in air-liquid-interface differentiation, in the presence of high concentration (1.5 mM) of CaCl2 in KSFM plus A 83-01 and Y-27632. Specifically, human foreskin keratinocytes (HFK) previously cultured in KSFM supplemented with 1 μM A83-01 and 5 μM Y-27632 (KSFM+A+Y) at low CaCl2 (90 μM) were plated on a porous membrane support ([…], Corning, 354474) and maintained for 14 days. […]

[12] = KSFM, compound used alone, late passage
[13] = KSFM plus compound alone (FIG. 17)

Row | Structure (SMILES) | cell growth rate [1] | hTERT expression ([2]; early passage (p3)) | hTERT expression ([2]; late passage (p6)) | plating efficiency in the presence of A83-01 [3] | proliferation [4, 12] | total population doublings [4] | plating efficiency in the presence of A83-01 [5] | hTERT expression ([6]; early passage (p2)) | hTERT expression ([6]; late passage (p5)) | population doubling (PD) reached before cells entered senescence ([7]; KSFM) | proliferation [7, 12] | total population doublings [7] | cell proliferation after 5 days [8, 13] | total cell number after 5 days ([8]; 5 μM) | cell proliferation after 5 days ([8]; used together with A83-01 in KSFM, 5 μM, 1 μM and 0.2 μM (FIG. 17)) | cell growth relative to control [9] | cell behavior (morphology) ([10]; 1 mM CaCl2 in KSFM plus A83-01 and Y-27632) | trans-epithelium electric resistance (TEER) ([10]; high concentration (1 mM) in KSFM plus A 83-01 and Y-27632) | epidermal-like structure formation (H&E) ([11]; 1.5 mM CaCl2 in KSFM+A+Y, air-liquid-interface, day 14) | tight junction formation (ZO-1 staining) ([11]; CaCl2 raised to 1.5 mM in KSFM+A+Y)
1 | C[C@@H](N)[C@H]1CC[C@H](C(=O)Nc2ccncc2)CC1.Cl.Cl [Y-27632, (R)-(+)-trans-4-(1-Aminoethyl)-N-(4-Pyridyl)cyclohexanecarboxamide dihydrochloride] | No significant increase of cell growth rate | slightly induced | non-detectible | ameliorated the low plating efficiency | did not promote the proliferation | slightly increased the total population doublings | ameliorated the low plating efficiency | induced | non-detectible | > 20 | did not promote the proliferation | slightly increased the total population doublings | slight increase of cell proliferation | slight increase of total cell numbers | synergistically increased |  |  |  |  | 
2 | Cc1cccc(-c2nn(C(=S)Nc3ccccc3)cc2-c2ccnc3ccccc23)n1 [A83-01, 3-(6-Methyl-2-pyridinyl)-N-phenyl-4-(4-quinolinyl)-1H-pyrazole-1-carbothioamide] |  | robustly induced | sustained measurable hTERT expression |  |  | also increased the total population doublings |  | quickly induced | sustained measurable hTERT expression |  |  | also increased the total population doublings | significantly increased | pronounced increase of total cell number |  |  |  |  |  | 
3 | CC(C)NCC(O)c1ccc(O)c(O)c1 (stereo not shown) [isoproterenol] |  |  |  |  |  |  |  |  |  |  |  |  |  |  |  | further increased epithelial cells growth |  |  |  | 
4 | [Ca+2].[Cl-].[Cl-] [CaCl2] |  |  |  |  |  |  |  |  |  |  |  |  |  |  |  |  | aggregate into tight clusters | increasing TEER | differentiated into multi-layer structures | Tight junction formation was observed

— US11060715B2, “Ex vivo proliferation of epithelial cells” (PROPAGENIX INC., priority 2015, dated 2021)
